Peptide text beside a SMILES is read from it.
Key:
[1] = tested on: TSHR-immunized diseased mice; conditions: previous study (8); cited from earlier work
[2] = tested on: immunologically naïve mice; assay: Studies in immunologically naive mice: 6 monthly IV administrations; format: in vivo, BALB/c mice; conditions: 1 mg/kg bw IV, 6 monthly administrations
Method: BALB/c mice were adapted for at least one week to start experiments at the age of 12 weeks. Animals were kept as described before. This study was approved by the local animal welfare authority and Ethics committee at the Regierung von Oberbayern (Government of Upper Bavaria) in Munich, Germany (no. 55.2-1-54-2532.0-32-15), and carried out in accordance to the European Commission guidelines.
Peptides (1 mg/kg body weight) or NaCl vehicle control were given by IV injection into a tail vein of these naïve mice (n=6 per group), and then continued at 4-weekly intervals for 6 months, as described before for the therapeutic study in immunized mice. Serum samples were taken at identical intervals.

In the case of “SPPCECHQEEDFRVTCKDIQRIPS (cyclic; Amino acid sequence derived from human thyrotropin-TSH receptor (TSHR)) [peptide 829]”, the “Improvement of disease parameters” value [1] is given as “small, non-significant trends to improve disease parameters”.

In the case of `CC(C)C[C@@H]1NC(=O)[C@H](Cc2ccc(O)cc2)NC(=O)[C@H](C(C)C)NC(=O)[C@H](C)NC(=O)[C@H](CC(=O)O)NC(=O)[C@H](CC(C)C)NC(=O)[C@H](CCCCN)NC(=O)[C@H]([C@@H](C)O)NC(=O)CNC(=O)[C@H](CCCCN)NC(=O)[C@H](CC(N)=O)NC(=O)[C@H](CCCCN)NC(=O)[C@H](CC(N)=O)NC1=O` [peptide 836 13mer, TKLDAVYLNKNKG] (HELM PEPTIDE1{A.V.Y.L.N.K.N.K.G.T.K.L.D}$PEPTIDE1,PEPTIDE1,1:R1-13:R2$$$V2.0), the “Tolerability / clinical findings” value [2] was “no pathological clinical findings were observed”.

In the case of `CC(C)[C@@H]1NC(=O)[C@H](CCCNC(=N)N)NC(=O)[C@H](Cc2ccccc2)NC(=O)[C@H](CC(=O)O)NC(=O)[C@H](CCC(=O)O)NC(=O)[C@H](CCC(=O)O)NC(=O)[C@H](CCC(N)=O)NC(=O)[C@H](Cc2c[nH]cn2)NC(=O)[C@@H](N)CSSC[C@@H](C(=O)O)NC(=O)[C@H]([C@@H](C)O)NC1=O` [peptide 19, CHQEEDFRVTC] (HELM PEPTIDE1{C.H.Q.E.E.D.F.R.V.T.C}$PEPTIDE1,PEPTIDE1,1:R3-11:R3$$$V2.0), the “Tolerability / clinical findings” value [2] was “no pathological clinical findings were observed”.

— patent US12060409B2, “Short cyclic peptides for the treatment of Graves' disease” (priority 2018, dated 2024)
